The results in this text go back to patent US12565505B2, “mTORC modulators and uses thereof” (Aeovian Pharmaceuticals, Inc., priority 2019, dated 2026).

The target of test [1] is T1, mTORC1 (Homo sapiens, UniProt P42345+P62942).
T1 construct: endogenous in cells; host or cells: PC3 cells (human prostate adenocarcinoma)
The test can be described thus: Inhibition assay for mTORC1: phosphorylation of pS6K at Thr389, AlphaLISA SureFire in PC3 cells. The class given is cell-based. An outline of the steps: (§1)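 Human prostate adenocarcinoma PC3 cells treated with compounds for 24 h. AlphaLISA SureFire read-out of pS6K Thr389 for mTORC1 and pAkt Ser473 for mTORC2, from which IC50s were derived.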

Test [2] has as its target T2, mTORC2 (Homo sapiens, UniProt P42345+P62942).
T2 construct: endogenous in cells; host or cells: PC3 cells (human prostate adenocarcinoma)
The test can be described thus: Inhibition assay for mTORC2: phosphorylation of pAkt at Ser473, AlphaLISA SureFire in PC3 cells. It is filed as cell-based. The following applies: 24 hours treatment, analogs substituted at C40 and C16 (C16 diastereomer mixtures not isolated). An outline of the steps:
as §1
(Bead proximity is the source of the signal in Alpha formats.)

Setting [3] is: PC3 cells, 24 hours treatment, pS6K Thr389, analogs substituted at C40 and C16 (C16 diastereomer mixtures not isolated), read-out: pIC50 mTORC1 (converted).
[4] abbreviates: PC3 cells, read-out: pIC50 mTORC2 (converted).

Like-named read-outs stand apart in the source and are kept apart here.

In the case of `CO[C@@H]1C[C@H](C[C@@H](C)[C@@H]2CC(=O)[C@H](C)/C=C(\C)[C@@H](O)[C@@H](OC)C(=O)[C@H](C)C[C@H](C)/C=C/C=C/C=C(\C)C(OC(C)C)C[C@@H]3CC[C@@H](C)[C@@](O)(O3)C(=O)C(=O)N3CCCCC3C(=O)O2)CC[C@H]1OC(=O)NCCc1ccccc1` (some centres unmarked) [Compound 80], the values for the IC50 in test [1] (setting [3]) and in test [2] (setting [4]) were 0.316 to 3.16 nM and over 10000 nM, respectively.

As to `COCCOCCOC1C[C@@H]2CC[C@@H](C)[C@@](O)(O2)C(=O)C(=O)N2CCCC[C@H]2C(=O)O[C@H]([C@H](C)C[C@@H]2CC[C@@H](OCCCO)[C@H](OC)C2)CC(=O)[C@H](C)/C=C(\C)[C@@H](O)[C@@H](OC)C(=O)[C@H](C)C[C@H](C)/C=C/C=C/C=C/1C` (mixture of isomers) [Compound 17], the IC50 is under 0.316 nM in test [1] and over 10000 nM in test [2] (pIC50 mTORC2, PC3 cells).

On to `CO[C@@H]1C[C@H](C[C@@H](C)[C@@H]2CC(=O)[C@H](C)/C=C(\C)[C@@H](O)[C@@H](OC)C(=O)[C@H](C)C[C@H](C)/C=C/C=C/C=C(\C)C(OCc3ccccc3)C[C@@H]3CC[C@@H](C)[C@@](O)(O3)C(=O)C(=O)N3CCCCC3C(=O)O2)CC[C@H]1OCCCc1ccccc1` (some centres unmarked) [Compound 116], for which the figures for the IC50 in test [1] (setting [3]) and in test [2] (setting [4]) were 0.316 to 3.16 nM and under 1000 nM, respectively.

As for `CO[C@@H]1C[C@H](C[C@@H](C)[C@@H]2CC(=O)[C@H](C)/C=C(\C)[C@@H](O)[C@@H](OC)C(=O)[C@H](C)C[C@H](C)/C=C/C=C/C=C(\C)C(OCC(C)(C)O)C[C@@H]3CC[C@@H](C)[C@@](O)(O3)C(=O)C(=O)N3CCCCC3C(=O)O2)CC[C@H]1OCCO` (some centres unmarked) [Compound 91], the figures for the IC50 in test [1] (setting [3]) and in test [2] (setting [4]) were 0.316 to 3.16 nM and 1000 to 10000 nM, respectively.

`COCCCO[C@@H]1CC[C@@H](C[C@@H](C)[C@@H]2CC(=O)[C@H](C)/C=C(\C)[C@@H](O)[C@@H](OC)C(=O)[C@H](C)C[C@H](C)/C=C/C=C/C=C(\C)C(OCCOCCOC)C[C@@H]3CC[C@@H](C)[C@@](O)(O3)C(=O)C(=O)N3CCCCC3C(=O)O2)C[C@H]1OC` (some centres unmarked) [Compound 23]: the values for the IC50 in test [1] (setting [3]) and in test [2] (setting [4]) were under 0.316 nM and over 10000 nM, respectively.

For `CO[C@@H]1C[C@H](C[C@@H](C)[C@@H]2CC(=O)[C@H](C)/C=C(\C)[C@@H](O)[C@@H](OC)C(=O)[C@H](C)C[C@H](C)/C=C/C=C/C=C(\C)C(OCCO)C[C@@H]3CC[C@@H](C)[C@@](O)(O3)C(=O)C(=O)N3CCCCC3C(=O)O2)CC[C@H]1OCCN1CCOCC1` (some centres unmarked) [Compound 8], the results for the IC50 in test [1] (setting [3]) and in test [2] (setting [4]) were under 0.316 nM and over 10000 nM, respectively.

For the molecule `CO[C@@H]1C[C@H](C[C@@H](C)[C@@H]2CC(=O)[C@H](C)/C=C(\C)[C@@H](O)[C@@H](OC)C(=O)[C@H](C)C[C@H](C)/C=C/C=C/C=C(\C)C(OCC3COC3)C[C@@H]3CC[C@@H](C)[C@@](O)(O3)C(=O)C(=O)N3CCCCC3C(=O)O2)CC[C@H]1OCCO` (some centres unmarked) [Compound 75], the IC50 in test [1] (setting [3]) was 0.316 to 3.16 nM; in test [2] (setting [4]), 1000 to 10000 nM.

`COCCOC1C[C@@H]2CC[C@@H](C)[C@@](O)(O2)C(=O)C(=O)N2CCCCC2C(=O)O[C@H]([C@H](C)C[C@@H]2CC[C@@H](OC(=O)NCCN3CCCCC3)[C@H](OC)C2)CC(=O)[C@H](C)/C=C(\C)[C@@H](O)[C@@H](OC)C(=O)[C@H](C)C[C@H](C)/C=C/C=C/C=C/1C` (some centres unmarked) [Compound 57]: the results for the IC50 in test [1] (setting [3]) and in test [2] (setting [4]) were under 0.316 nM and 1000 to 10000 nM, respectively.

In the case of `COCCOC1C[C@@H]2CC[C@@H](C)[C@@](O)(O2)C(=O)C(=O)N2CCCCC2C(=O)O[C@H]([C@H](C)C[C@@H]2CC[C@@H](OC(=O)N(C)CCN3CCOCC3)[C@H](OC)C2)CC(=O)[C@H](C)/C=C(\C)[C@@H](O)[C@@H](OC)C(=O)[C@H](C)C[C@H](C)/C=C/C=C/C=C/1C` (some centres unmarked) [Compound 25], the IC50 in test [1] (setting [3]) is under 0.316 nM; in test [2] (setting [4]) it was 1000 to 10000 nM.

On to `CO[C@@H]1C[C@H](C[C@@H](C)[C@@H]2CC(=O)[C@H](C)/C=C(\C)[C@@H](O)[C@@H](OC)C(=O)[C@H](C)C[C@H](C)/C=C/C=C/C=C(\C)C(OCCc3ccccc3)C[C@@H]3CC[C@@H](C)[C@@](O)(O3)C(=O)C(=O)N3CCCCC3C(=O)O2)CC[C@H]1OC(=O)NCCN1CCOCC1` (some centres unmarked) [Compound 93], for which the figures for the IC50 in test [1] (setting [3]) and in test [2] (setting [4]) were under 0.316 nM and under 1000 nM, respectively.

`CO[C@@H]1C[C@H](C[C@@H](C)[C@@H]2CC(=O)[C@H](C)/C=C(\C)[C@@H](O)[C@@H](OC)C(=O)[C@H](C)C[C@H](C)/C=C/C=C/C=C(\C)C(OCCc3ccccc3)C[C@@H]3CC[C@@H](C)[C@@](O)(O3)C(=O)C(=O)N3CCCCC3C(=O)O2)CC[C@H]1OC(=O)NCCN(C)C` (stereo partly drawn) [Compound 104, [(1R,2R,4S)-4-[(2R)-2-[(1R,9S,12S,15R,16E,18R,19R,21R,23S,24E,26E,28E,32S,35R)-1,18-dihydroxy-19-methoxy-15,17,21,23,29,35-hexamethyl-2,3,10,14,20-pentaoxo-30-(2-phenylethoxy)-11,36-dioxa-4-azatricyclo[30.3.1.0^4,9]hexatriaconta-16,24,26,28-tetraen-12-yl]propyl]-2-methoxy-cyclohexyl] N-[2-(dimethylamino)ethyl]carbamate]: the IC50 is under 0.316 nM in test [1] (setting [3]) and under 1000 nM in test [2] (setting [4]).

Consider `CO[C@@H]1C[C@H](C[C@@H](C)[C@@H]2CC(=O)[C@H](C)/C=C(\C)[C@@H](O)[C@@H](OC)C(=O)[C@H](C)C[C@H](C)/C=C/C=C/C=C(\C)C(OCC3COC3)C[C@@H]3CC[C@@H](C)[C@@](O)(O3)C(=O)C(=O)N3CCCCC3C(=O)O2)CC[C@H]1OCCCO` (some centres unmarked) [Compound 84], for which the IC50 in test [1] (setting [3]) was 0.316 to 3.16 nM; in test [2] (setting [4]), 1000 to 10000 nM.

As for `CO[C@@H]1C[C@H](C[C@@H](C)[C@@H]2CC(=O)[C@H](C)/C=C(\C)[C@@H](O)[C@@H](OC)C(=O)[C@H](C)C[C@H](C)/C=C/C=C/C=C(\C)C(OCC3CCOCC3)C[C@@H]3CC[C@@H](C)[C@@](O)(O3)C(=O)C(=O)N3CCCCC3C(=O)O2)CC[C@H]1OCCO` (some centres unmarked) [Compound 86], the results for the IC50 in test [1] (setting [3]) and in test [2] (setting [4]) were 0.316 to 3.16 nM and 1000 to 10000 nM, respectively.

Turning to `CO[C@@H]1C[C@H](C[C@@H](C)[C@@H]2CC(=O)[C@H](C)/C=C(\C)[C@@H](O)[C@@H](OC)C(=O)[C@H](C)C[C@H](C)/C=C/C=C/C=C(\C)C(OCCO)C[C@@H]3CC[C@@H](C)[C@@](O)(O3)C(=O)C(=O)N3CCCCC3C(=O)O2)CC[C@H]1OCCCN1C[C@@H](C)O[C@@H](C)C1` (some centres unmarked) [Compound 18], the IC50 in test [1] (setting [3]) was under 0.316 nM; in test [2] (setting [4]), over 10000 nM.

`CO[C@@H]1C[C@H](C[C@@H](C)[C@@H]2CC(=O)[C@H](C)/C=C(\C)[C@@H](O)[C@@H](OC)C(=O)[C@H](C)C[C@H](C)/C=C/C=C/C=C(\C)C(OCCO)C[C@@H]3CC[C@@H](C)[C@@](O)(O3)C(=O)C(=O)N3CCCCC3C(=O)O2)CC[C@H]1OCCCN1CCCCC1` (stereo partly drawn) [Compound 87, (1R,9S,12S,15R,16E,18R,19R,21R,23S,24E,26E,28E,32S,35R)-1,18-dihydroxy-30-(2-hydroxyethoxy)-19-methoxy-12-[(1R)-2-[(1S,3R,4R)-3-methoxy-4-[3-(1-piperidyl)propoxy]cyclohexyl]-1-methyl-ethyl]-15,17,21,23,29,35-hexamethyl-11,36-dioxa-4-azatricyclo[30.3.1.0^4,9]hexatriaconta-16,24,26,28-tetraene-2,3,10,14,20-pentone]: the IC50 was 0.316 to 3.16 nM in test [1] (setting [3]) and 1000 to 10000 nM in test [2] (setting [4]).

In the case of `CO[C@@H]1C[C@H](C[C@@H](C)[C@@H]2CC(=O)[C@H](C)/C=C(\C)[C@@H](O)[C@@H](OC)C(=O)[C@H](C)C[C@H](C)/C=C/C=C/C=C(\C)C(OCc3ccccc3)C[C@@H]3CC[C@@H](C)[C@@](O)(O3)C(=O)C(=O)N3CCCCC3C(=O)O2)CC[C@H]1OC(=O)NCCN1CCOCC1` (some centres unmarked) [Compound 115], the IC50 in test [1] (setting [3]) was under 0.316 nM; in test [2] (setting [4]) it was under 1000 nM.
